Measurements published in patent US20130296346A1, “DIPHENYL-AMINE DERIVATIVES: USES, PROCESS OF SYNTHESIS AND PHARMACEUTICAL COMPOSITIONS” (Faes Farma, S.A., priority 2010, published 2013).
Counter-ions that a name gives are not always drawn. Blank lines part the entries; values can stand above or below the compound they belong to.

Assays:
TNFr = assay: TNF-R transfectant, NF-kB reporter gene (secreted phosphatase); format: cell-based
Description: (§1) The secreted phosphatase sPase was used as reporter for its ability to process the luminiscent or colorimetric substrates from the culture based in the hydrolysis of substrates chemically similar to nitrophenol phosphate. Five generation of transfectants were developed as described: • 1. IL-4R. Chains of Type II IL-4-r, which is the common one within non-haematopoietic cells were transfected, as well as STAT6 which the key molecule in the nuclear signalling route by IL-4-r, and finally a reporter gene to measure the response to STAT6 was introduced. Endogenously, cells had Janus Associated Kinase 1 (JAK1) which was previously known to be associated with STAT6 via p62/aPKC. • 2. IL-6R. Chains of IL-6R were transfected and a reporter gene able to measure the response to STAT3 was introduced. As it is well known, STAT3 is a transductional molecule and a nuclear factor physiologically produced in the standard responses IL-6/IL-6R. • 3. TNF-R. In this case, a reporter gene able to measure the response to NF-kB was introduced, as this is the transductional molecule and the nuclear factor physiologically produced in response to TNF-alpha. […] LPS-Receptor complex represented by TLR4/MD2/CD14. Reporter genes with elements of response to NFkB were used as in the previous case, but the selectivity was achieved by the co-transfection of components of the LPS-R complex. The LPS is captured from the serum through the union to one plasma protein known as LBP, which transfers the LPS to the membrane protein CD14. The LBP inclusion accounts for an increase of 1000-fold the sensitivity versus media or cultures LBP-frees. The molecule CD14 is not an LPS-receptor but a module of the receptor complex which captures LBP, allowing the transference of LPS in the cellular surface to MD2. CD14 has not a cytoplasmic tail and it is not able to be a signal transducer but it substantially increases the sensitivity of the system. In a similar way, MD2 is not a signal transducer but the combination of CD14 and MD2 allows the increase of the sensitivity by 10000-fold. • 5. IL-1R. Reporter genes with elements of response to NFkB were used as in the previous case, but the selectivity was achieved by the expression of components belonging to the receptor complex IL-1R. IL-1R belongs to a receptors superfamily which uses TIR transduction domains (Toll-like IL-1R). It is known that the IL-1R route activates mitogen-activated protein kinases (MAPK) of JNK type which in turn generate nuclear factors transcriptionally active as AP-1. The reporter gene includes NFkB and AP-1 sites chained in order to simulate the physiological situation.

IL6r = assay: IL-6R transfectant, STAT3 reporter gene (secreted phosphatase); format: cell-based
Description: as §1

IL4r = assay: IL-4R transfectant, STAT6 reporter gene (secreted phosphatase); format: cell-based
Description: as §1

[1] = Cytotoxicity for human non-tumoral cells, XTT; format: cell-based; conditions: HUVEC cells (primary, from human cords)
Procedure: (§2) The cytotoxicity of the compounds for human non-tumoral cells was studied in fibroblasts, HUVEC cells and resting PBLs (Peripheral Blood lymphocytes).
HUVEC cells were obtained by treating human cords with collagenase type I, […] in Hank's medium incubating 20 minutes at 37° C. Cells were collected afterwards and cultivated in medium M199 with supplements of 20% FBS, 1% P/S and 25 mg/500 ml of medium ECGF, Cells were grown on a 0.2% gelatin matrix.
(§3) Distinct amounts of exponentially growing cells were seeded in 96-well flat-bottomed microtiter plates in a final volume of 100 μl were seeded in 96-well flat-bottomed microtiter plates, and incubated at 37° C. in a humidified atmosphere of 5% CO2/95% air for 24 h to allow the cells attach to the plates. Then, cells were incubated with different concentrations of the assayed compound at 37° C. under the 5% CO2/95% air atmosphere for 72 h. Cell proliferation was quantified using the XTT cell proliferation kit (Roche Molecular Biochemicals, Mannheim, Germany) following the manufacturer's instructions. Briefly, a freshly prepared mixture solution (50 μl) of XTT labelling reagent and PMS (N-methyldibenzopyrazine methyl sulfate) electron coupling reagent was added to each well. The resulting mixtures were further incubated for 4 h in a humidified atmosphere (37° C., 5% CO2), and the absorbance of the formazan product generated was measured with a microtiter plate reader at a test wavelength of 490 nm and a reference wavelength of 655 nm. The IC50 (50% inhibitory concentration) was then calculated as the drug concentration causing a 50% inhibition of cell proliferation. Data are shown as mean values of four independent experiments each performed in triplicate.

[2] = Cytotoxicity for human non-tumoral cells, XTT; format: cell-based; conditions: Fibroblasts
Procedure: as §2, §3

B16-F1 = assay: In vitro cytotoxicity, SRB method; format: cell-based; conditions: Mus musculus, B16-F1 melanoma, 72 hours
Procedure: (§4) SRB method was followed (Wieland, V., et al. Sulforhodamine B Assay and Chemosensitivity. Chemosensitivity, volume 1, In Vitro Assays. Methods in Molecular Medicine. Edited by Rosalyn D. Blumenthal. Humana Press, Totowa, N.J., 2005).
(§5) Cells were seeded in microplates of 96 wells. In each well, according to the cell type, specific number of cells were seeded in 200 microliters. In these conditions, cells were cultured for 3 days, with the aim of reaching their exponential phase of growing to assay the product cytotoxicity. The product concentrations were prepared just the day of treatments, after thawing the stock solutions (10 mM). After harvesting the microplate with the seeded cells for 3 days, the culture medium was discarded and replaced by 150 μl of fresh medium in each well. This was followed by the addition of 50 μl of the corresponding product dilution so as the final concentration in the final volume of 200 microliters in each well was the one scheduled. The products, at the assayed concentrations, were in contact with the cell growing monolayer for 72 hours and incubated at 37° C., 5% CO2. Finally, cells were growth arrested adding […] of cold TCA (Trichloroacetic acid) 50%, (final concentration of 10% in the well). Microplate was then maintained at 4° C. for over 60 min to fix cellular proteins till initiation of washing and staining with SRB.
(§6) Cell viability (%)=(Cell population of the treated well/Maximum cell population of the Standard curve)×100.
(§7) Mean viability values for each concentration were calculated from the values obtained for each well in which that concentration was assayed.

HCT116 = assay: In vitro cytotoxicity, SRB method; format: cell-based; conditions: Homo sapiens, HCT-116, HCT116 colon cancer, 72 hours
Procedure: as §4, §5, §6, §7

HepG2 = assay: In vitro cytotoxicity, SRB method; format: cell-based; conditions: Homo sapiens, HepG2 hepatoma, 72 hours
Procedure: as §4, §5, §6, §7

Malm-3M = assay: In vitro cytotoxicity, SRB method; format: cell-based; conditions: Malm-3M melanoma, 72 hours
Procedure: as §4, §5, §6, §7

NCI-H460 = assay: In vitro cytotoxicity, SRB method; format: cell-based; conditions: Homo sapiens, NCI-H460 lung, 72 hours
Procedure: as §4, §5, §6, §7

SF268 = assay: In vitro cytotoxicity, SRB method; format: cell-based; conditions: Homo sapiens, SF-268, SF268 glioblastoma, 72 hours
Procedure: as §4, §5, §6, §7

SW260 = assay: In vitro cytotoxicity, SRB method; format: cell-based; conditions: SW260 colon cancer, 72 hours
Procedure: as §4, §5, §6, §7

resting human PBLs = assay: Apoptosis of resting human PBLs; format: cell-based
Procedure: To isolate normal peripheral blood lymphocytes (PBLs), mononuclear cells were obtained from fresh human peripheral blood from healthy volunteers by centrifugation on Ficoll-Hypaque density gradients, washed with phosphate-buffered saline (PBS), and resuspended in RPMI-1640 medium containing 10% (v/v) heat-inactivated FBS, 2 mM L-glutamine, 100 U/ml penicillin, and 100 μg/ml streptomycin as described (Cabaner et al. Br. J. Pharmacol 127:813-825.1999). Monocytes were depleted by culture dish adherence after overnight incubation. Nonadherent cells (lymphocytes) were washed with PBS and collected. PBL preparations were typically 70-75% CD3^+, 24-29% CD 19^+, and less than 0.4% CD 14^+.

SMILES: Cl.FC(F)(F)Oc1cccc(CNCCCC=C(c2ccccc2)c2ccccc2)c1
- melting point: 102.4 to 104 °C

SMILES: Cl.FC(F)(F)Oc1ccc(CNCCCCC=C(c2ccccc2)c2ccccc2)cc1
- melting point: 109 to 110.5 °C

SMILES: CC(=O)O[C@H]1C(=O)[C@@]2(C)[C@H]([C@H](OC(=O)c3ccccc3)[C@]3(O)C[C@H](OC(=O)[C@H](O)[C@@H](NC(=O)c4ccccc4)c4ccccc4)C(C)=C1C3(C)C)[C@]1(OC(C)=O)CO[C@@H]1C[C@@H]2O [Taxol, reference compound]
- IC50 at 72 h [1]: 0.00047 µM
- IC50 at 72 h [2]: 0.00075 µM

SMILES: COc1ccc(CNCCCC=C(c2ccccc2)c2ccccc2)cc1.Cl
- melting point: 69.2 to 73.8 °C

SMILES: CC(C)n1ncc2c(NCCCCC=C(c3ccccc3)c3ccccc3)ncnc21 [Compound 44, (6,6-Diphenyl-hex-5-enyl)-(1-isopropyl-1H-pyrazolo[3,4-d]pyrimidin-4-yl)amine hydrochloric salt]
- IC50 (B16-F1): 8 µM
- IC50 (HCT116): 5 to 50 µM
- IC50 (HepG2): 5 to 50 µM
- IC50 (Malm-3M): 40 µM
- IC50 (NCI-H460): 9.4 µM
- IC50 (SF268): 31 µM
- IC50 (SW260): 50 µM

SMILES: C(CCCCNc1ncnc2[nH]ncc12)=C(c1ccccc1)c1ccccc1 [Compound 40, (6,6-Diphenyl-hex-5-enyl)-(1H-pyrazolo[3,4-d]pyrimidin-4-yl)amine]
- IC50 (B16-F1): 9 µM
- IC50 (HCT116): 5 to 50 µM
- IC50 (HepG2): 5 to 50 µM
- IC50 (Malm-3M): 30 µM
- IC50 (NCI-H460): 8.1 µM
- IC50 (SF268): 33 µM
- IC50 (SW260): 50 µM
- IC50 at 72 h [1]: 36 µM

SMILES: C(CCCNc1ncnc2[nH]ncc12)=C(c1ccccc1)c1ccccc1 [Compound 41, (5,5-Diphenyl-pent-4-enyl)-(1H-pyrazolo[3,4-d]pyrimidin-4-yl)amine]
- IC50 (B16-F1): 6 µM
- IC50 (HCT116): 5 to 50 µM
- IC50 (HepG2): 5 to 50 µM
- IC50 (Malm-3M): 44 µM
- IC50 (NCI-H460): 2 µM
- IC50 (SF268): 17 µM
- IC50 (SW260): 5 to 50 µM

SMILES: C(CCCNCc1ccccn1)=C(c1ccccc1)c1ccccc1.Cl
- melting point: 125 to 126.9 °C

SMILES: Cl.FC(F)(F)Oc1ccc(CNCCC=C(c2ccccc2)c2ccccc2)cc1
- melting point: 126 to 128 °C

SMILES: COc1cccc2c1C(=O)c1c(O)c3c(c(O)c1C2=O)C[C@@](O)(C(=O)CO)C[C@@H]3O[C@H]1C[C@H](N)[C@H](O)[C@H](C)O1 [Doxorubicin, reference compound]
- IC50 at 72 h [1]: 0.23 µM
- % Apoptosis PBLs (resting human PBLs; 10^−4 M): 21.7%
- % Apoptosis PBLs (resting human PBLs; 10^−5 M): 13.2%

Further lines, with some results ahead:

- Inhibition of TNFr (TNFr): Inhibition of TNFr total
- Inhibition of IL6r (IL6r): Inhibition of IL6r low-75%
- Inhibition of IL4r (IL4r): Inhibition of IL4r total
SMILES: Cc1nc2ccccc2n1CCCC=C(c1ccccc1)c1ccccc1 [Compound 27]

- Inhibition of TNFr (TNFr): Inhibition of TNFr up 30%
- Inhibition of IL6r (IL6r): Inhibition of IL6r down 5%
- Inhibition of IL4r (IL4r): Inhibition of IL4r total
- melting point: 109 to 110.7 °C
SMILES: Cl.FC(F)(F)Oc1ccccc1CNCCCC=C(c1ccccc1)c1ccccc1 [Compound 10, (5,5-diphenyl-pent-4-enyl)-(2-trifluoromethoxybenzyl)amine hydrochloride]

- melting point: 205.7 to 207 °C
SMILES: Clc1nc(NCCCCC=C(c2ccccc2)c2ccccc2)c2nc[nH]c2n1 [Compound 29, (2-Chloro-9H-purin-6-yl)-(6,6-diphenyl-hex-5-enyl)-amine]

- Inhibition of TNFr (TNFr): Inhibition of TNFr total
- Inhibition of IL6r (IL6r): Inhibition of IL6r total
- Inhibition of IL4r (IL4r): Inhibition of IL4r total
- melting point: 163 to 165.5 °C
SMILES: C(CCNCc1cccs1)=C(c1ccccc1)c1ccccc1.Cl [Compound 13, (4,4-diphenyl-but-3-enyl)-thiophen-2-ylmethyl-amine hydrochloride]

- Inhibition of IL6r (IL6r): Inhibition of IL6r down-low (*)
SMILES: C(CCCn1ccnc1)=C(c1ccccc1)c1ccccc1 [Compound 28, 1-(5,5-Diphenyl-pent-4-enyl)-1H-imidazole]
- Inhibition of TNFr (TNFr): Inhibition of TNFr 25%
- Inhibition of IL4r (IL4r): Inhibition of IL4r 75%

- melting point: 121.4 to 122.7 °C
SMILES: Cl.FC(F)(F)c1ccc(CNCCCC=C(c2ccccc2)c2ccccc2)cc1

- melting point: 108 to 109.7 °C
SMILES: C(CCCNCc1ccsc1)=C(c1ccccc1)c1ccccc1.Cl
